{"source": "ChEMBL document CHEMBL1150714", "about": "“1,3,7-Trimethylguanine from the Sponge Latrunculia brevis” (J Nat Prod, 1987)", "tested_on": "P388", "assay": "Cytotoxicity against mouse P388 cells", "assay_type": "functional, cell-based", "data": [{"compound": "Cn1c(=O)c2c(ncn2C)n(C)c1=N", "values": [{"measurement": "EC50", "result": "> 10", "unit": "µg/mL"}]}]}
